The text below walks through data of patent publication US20130251783A1, “LIPOSOMES CONTAINING PERMEATION ENHANCERS FOR ORAL DRUG DELIVERY” (Universitat Heidelberg, priority 2011, published 2013).

In data set [1] the test system is Caco-2 cells. To be noted: cited from earlier work.
Data set [2] relates to Caco-2 cells. Kind of data set: LDH release cytotoxicity assay. The data set is classed as cell-based. To be noted: free solution, all concentrations (likely inhibition of the enzymatic reaction). As for the experimental part: (§1) Caco-2 cells were grown in T-75 flasks in Dulbecco's modified Eagle's medium (DMEM) supplemented with 10% FBS, 1% non-essential amino acids, 1% pyruvate, 1% L-glutamine, 100 U/ml penicillin and 100 μg/ml streptomycin at 37° C. in an atmosphere with 5% CO2 and in equilibrium with distilled water. The medium was changed every other day, and the cells were subcultured at 80% confluency. Cells were used in the experiments described below.
(§2) Cytotoxicity of liposomes and bio-enhancer solutions was investigated using the Alamar Blue® assay (AbD Serotec, Oxford, UK) and by determination of the release of lactate dehydrogenase (LDH) with a test kit (Sigma-Aldrich, Taufkirchen, Germany). […] The formed NADH in turn reduces a tetrazolium salt to a red-coloured product which can be determined photometrically. […]
For the LDH release assay, cells were treated similar as described for the Alamar Blue® cytotoxicity assay with little changes. […] The reaction was stopped by the addition of 10 μl 1N HCl and subsequently, the colour change of the dye was measured by a Tecan microplate absorbance reader (Sunrise, Tecan, Grodig, Austria) at a wavelength of 490 nm and a reference wavelength of 700 nm. To eliminate the influence of the liposomes and the bio-enhancers on the absorbance, a blank was measured of the formulations with a concentration equal to the final assay concentration. […]

Data set [3] concerns rats. Particulars: cited from earlier work.
The subject of another data set is rabbits. To be noted: cited from earlier work.
For data set [4], the system named is Caco-2 cells. Kind of data set: Alamar Blue cytotoxicity assay. It is filed as cell-based. The method, then:
as §1, §2
In terms of the Alamar Blue® assay, groups of eight wells were incubated with the solutions of the bio-enhancers in five concentrations (1 μM, 10 μM, 100 μM, 1 mM and 10 mM) and the liposomal formulations in three concentrations (0.5 mM, 5 mM and 50 mM total lipid) in KRB for 2, 4, and 8 h at 37° C. […] After 4 h at 37° C., the colour change of the dye was determined at an excitation wavelength of 530 nm and an emission wavelength of 590 nm in a Fluoroskan Ascent® plate reader. […] Cell viability was expressed as follows: […]

The test system of data set [5] is rats. To be noted: rats fed daily around 37.7 mg/kg for two years; cited from earlier work.

Turning to `C[C@H](CCC(=O)N(C)CC(=O)O)[C@H]1CC[C@H]2[C@@H]3[C@H](O)C[C@@H]4C[C@H](O)CC[C@]4(C)[C@H]3C[C@H](O)[C@]12C` [CS, cholylsarcosine], the “Cytotoxicity in WST-1 transformation assay” value in the data set with Caco-2 cells [1] was “no cytotoxicity”.
`CCCCCCCCCCCCCCCC[n+]1ccccc1` [CpCl, cetylpyridinium chloride]: in the data set with Caco-2 cells [2], the “LDH release compared to incubation with KRB” value is “lower as the release after incubation with KRB”. Further, the median lethal dose (LD50) with rats [3] was 200 mg/kg; with rabbits, 400 mg/kg. For the same molecule, in the data set on Caco-2 cells [4] (Caco-2 cells), the “Toxicity compared among the investigated enhancers” value is given as “most toxic”. The “Cytotoxicity (cell viability)” value with Caco-2 cells [4] (free enhancer in KRB, concentration 1 mM) was “strong cytotoxicity”.
As for `CCCCCCCCCCCCCCCCCCN` [SA, stearylamine], the Side effects entry in the data set with rats [5] is “without causing any side effects”.
